Laboratory results taken from patent US7241863B2, “Human metabotropic glutamate receptor” (NPS Pharmaceuticals, Inc., priority 2003, dated 2007).

Assays:
Type in all cases: cell-based
human mGluR5d receptor = target: T1, human mGluR5d receptor (Homo sapiens, UniProt P41594); assay: Xenopus oocyte expression assay, calcium-activated chloride current; settings: for desensitization of evoked calcium-activated chloride currents: repeated application of 10-100 μM, Xenopus oocytes expressing hmGluR5d
T1 construct: expressed in transfected cells; host or cells: Xenopus laevis oocytes injected with cRNA transcribed from phmGluR5d(Hyg+)
T1 sequence (P41594 21-942 isoform P41594-3): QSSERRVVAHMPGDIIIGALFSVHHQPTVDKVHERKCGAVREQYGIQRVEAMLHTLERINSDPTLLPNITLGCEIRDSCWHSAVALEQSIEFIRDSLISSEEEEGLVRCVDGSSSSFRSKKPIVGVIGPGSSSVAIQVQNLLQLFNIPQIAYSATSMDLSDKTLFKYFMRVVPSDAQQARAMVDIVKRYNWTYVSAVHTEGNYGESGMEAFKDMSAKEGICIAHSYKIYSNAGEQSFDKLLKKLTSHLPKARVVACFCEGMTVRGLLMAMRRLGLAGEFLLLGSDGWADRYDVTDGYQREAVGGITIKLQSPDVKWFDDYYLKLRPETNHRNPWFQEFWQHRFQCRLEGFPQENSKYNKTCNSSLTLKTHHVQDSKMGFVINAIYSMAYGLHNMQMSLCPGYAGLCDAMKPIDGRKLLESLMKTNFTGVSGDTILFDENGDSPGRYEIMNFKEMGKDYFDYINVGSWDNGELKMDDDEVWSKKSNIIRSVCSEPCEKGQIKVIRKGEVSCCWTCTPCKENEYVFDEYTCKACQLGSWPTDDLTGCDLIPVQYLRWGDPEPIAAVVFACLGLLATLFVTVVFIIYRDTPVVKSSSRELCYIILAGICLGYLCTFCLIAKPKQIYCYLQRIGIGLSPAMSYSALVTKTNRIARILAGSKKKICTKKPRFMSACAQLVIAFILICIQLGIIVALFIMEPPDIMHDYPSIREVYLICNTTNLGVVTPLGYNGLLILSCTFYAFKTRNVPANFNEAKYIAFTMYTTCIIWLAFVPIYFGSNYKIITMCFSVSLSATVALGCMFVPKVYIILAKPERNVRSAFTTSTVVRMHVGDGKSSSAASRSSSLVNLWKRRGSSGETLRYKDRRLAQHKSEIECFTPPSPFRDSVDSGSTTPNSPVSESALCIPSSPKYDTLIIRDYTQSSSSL
Protocol: This example describes the activation of the novel hmGluRSd splice variant using a Xenopus oocyte expression assay. PhmGluR5d(Hyg+) DNA was linearized by restriction enzyme digestion, and capped sense-strand cRNA was synthesized by T7 RNA polymerase transcription (Ambion Message Machine Kit). In vitro-transcribed RNA was concentrated by ethanol precipitation and the size and integrity of the RNA was assessed on a denaturing agarose gel.
In vitro-transcribed RNA (˜10 ng) encoding the human mGluR5d receptor was injected into Xenopus Oocytes. Following injection, oocytes were incubated at 16° C. in MBS containing 1 mM CaCl2 for 2 to 7 days prior to electrophysiological recording. Following the incubation, the oocytes were voltage-clamped using standard electrophysiological techniques. […] Activation of the hmGluR5d receptor was detected by increases in the calcium-activated chloride current.
Test substances were applied by superfusion at a flow rate of about 5 ml/min. Receptor activation was determined by measuring the increase in calcium-activated chloride current (ICl) Increases in ICl were quantified by measuring the peak inward current stimulated by activating agent, relative to the holding current at […].

hmGluR5d receptor = target: T2, hmGluR5d receptor (Homo sapiens, UniProt P41594); assay: Increases in intracellular calcium (Fluo3-AM, FLIPR) in transfected HEK293 cells; settings: hmGluR5d expressed in HEK293 cells, FIG. 4
T2 construct: The full-length human mGluR5d was then subcloned into the mammalian expression vector pcDNA3.1/Hygro(+) vector; expressed in transfected cells; host or cells: HEK293 cells (ATCC CRL 1573) transfected with phmGluR5d(Hyg+)
T2 sequence (P41594 21-942 isoform P41594-3): as above
Protocol: Human embryonic kidney cells (293, ATCC, CRL 1573) are grown in a routine manner. Cells are plated in 10 cm cell-culture plates in Dulbecco's modified Eagle's medium (D-MEM) containing 10% fetal bovine serum (FBS) and 1× penicillin-streptomycin (Life Technologies) so that they are approximately 70% confluent after an overnight incubation. To prepare DNA for transfection, the plasmid phmGluR5d(Hyg+) is precipitated with ethanol, rinsed and resuspended in sterile water at a concentration of 1 μg/μl. Ten micrograms of the plasmid DNA is incubated with the liposome formulation LipofectAMINE™ (Life Technologies) for 20 minutes in 1.6 mls of serum-free Opti-MEM (Life Technologies). After the room temperature incubation, 6.4 mls of Opti-MEM is added to the transfection mix. This solution is added to the cells which have been rinsed twice with 8 ml washes of Opti-MEM. The cells and transfection mix are incubated at 37° C. for 5 hours, at which time 8 mls of Opti-MEM/20% FBS is added to bring the FBS concentration to 10%. […] Expression of the novel human mGluR5d splice variant of the present invention in clonal cell lines or pools can be assessed by Northern blot analysis of human mGluR5d mRNA or functionally as in the above experiments by assessing increases in intracellular calcium in response to mGluR5 agonists. […]

[1] = target: T3, hCaR/hmGluR5d chimeric receptor (Homo sapiens, UniProt P41180); assay: Increases in intracellular calcium (Fluo3-AM, FLIPR) in HEK293 cells expressing the chimeric receptor; settings: hCaR/hmGluR5d expressed in HEK293 cells, FIG. 5
T3 construct: expressed in transfected cells; host or cells: HEK293 cells (ATCC CRL 1573) stably transfected with phCaR/hmGluR5d(Hyg+)
T3 sequence (P41180 with tags, fused parts or gaps): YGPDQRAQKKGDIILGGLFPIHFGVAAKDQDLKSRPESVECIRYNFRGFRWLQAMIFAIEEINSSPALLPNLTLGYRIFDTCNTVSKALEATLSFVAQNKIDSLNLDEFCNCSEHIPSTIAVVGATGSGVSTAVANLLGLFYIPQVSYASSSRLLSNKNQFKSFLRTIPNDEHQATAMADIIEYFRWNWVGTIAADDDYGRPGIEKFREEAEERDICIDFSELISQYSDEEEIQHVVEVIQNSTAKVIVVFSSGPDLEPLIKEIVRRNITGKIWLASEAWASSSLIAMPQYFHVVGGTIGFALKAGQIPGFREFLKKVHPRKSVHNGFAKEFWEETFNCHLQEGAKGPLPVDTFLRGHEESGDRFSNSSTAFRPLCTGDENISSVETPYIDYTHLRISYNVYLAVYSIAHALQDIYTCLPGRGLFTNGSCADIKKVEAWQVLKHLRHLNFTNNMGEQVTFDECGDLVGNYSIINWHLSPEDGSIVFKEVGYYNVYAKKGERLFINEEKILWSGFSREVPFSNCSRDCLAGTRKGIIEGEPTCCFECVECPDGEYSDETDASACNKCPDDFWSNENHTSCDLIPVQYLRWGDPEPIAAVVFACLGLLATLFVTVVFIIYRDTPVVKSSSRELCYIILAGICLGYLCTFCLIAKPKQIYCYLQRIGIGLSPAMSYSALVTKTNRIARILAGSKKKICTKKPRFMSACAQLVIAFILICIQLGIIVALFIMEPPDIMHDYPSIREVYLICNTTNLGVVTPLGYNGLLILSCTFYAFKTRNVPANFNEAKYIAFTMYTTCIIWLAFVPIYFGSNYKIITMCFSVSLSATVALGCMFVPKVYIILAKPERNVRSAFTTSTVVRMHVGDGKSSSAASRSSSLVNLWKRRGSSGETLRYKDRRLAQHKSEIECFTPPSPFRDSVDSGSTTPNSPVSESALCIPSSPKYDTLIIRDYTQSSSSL
Protocol: This example provides a method for the production of stably transfected mammalian cell lines expressing the chimeric receptor hCaR/hmGluR5d, but is not meant to be limiting. Human embryonic kidney cells (293, ATCC, CRL 1573) are grown in a routine manner. Cells are plated in 10 cm cell-culture plates in Dulbecco's modified Eagle's medium (D-MEM) containing 10% fetal bovine serum (FBS) and 1×penicillin-streptomycin (Life Technologies) so that they are approximately 70% confluent after an overnight incubation. To prepare DNA for transfection, the plasmid phCaR/hmGluR5d(Hyg+) is precipitated with ethanol, rinsed and resuspended in sterile water at a concentration of 1 μg/μl. Ten micrograms of the plasmid DNA is incubated with the liposome formulation LipofectAMINE™ (Life Technologies) for 20 minutes in 1.6 mls of serum-free Opti-MEM (Life Technologies). […] Expression can also be assessed by Western blot analysis using the commercially available antibody Anti-Rat mGluR5, polyclonal (Upstate Biotechnology).
The chimeric receptor, hCaR/hmGluR5d, also mediates the stimulation of inositol phosphate (IP)/Ca^2+ signal transduction. […] After an additional 24 hour incubation, cells are loaded with the calcium indicator dye Fluo3-AM and increases in intracellular calcium in response to calcium are measured using an automated fluorescent imaging plate reader (FLIPR). […]

## N[C@H](C(=O)O)c1cc(O)cc(O)c1 [DHPG, (S)-3,5-dihydroxyphenylglycine]
Human mGluR5d receptor
  desensitization of evoked calcium-activated chloride currents: only minimally desensitized
hmGluR5d receptor
  functional activation of the receptor (agonist): functional activation

## N[C@@H](CCC(=O)O)C(=O)O [L-glutamate]
Human mGluR5d receptor; 100 μM, applied by superfusion, voltage-clamped Xenopus oocytes expressing hmGluR5d
  increase in calcium-activated chloride current (receptor activation): reversible, oscillatory increases in the calcium-activated chloride current
Human mGluR5d receptor
  desensitization of evoked calcium-activated chloride currents: only minimally desensitized

## calcium
[1]
  functional activation of the chimeric receptor (agonist): functional activation
